Measurements published in EP0038629A1, “Virazole derivatives, process for their preparation and use as antiviral agents” (priority 1980, dated 1981).
Where two headings read alike, the source gives them in different places. Marks after values point to notes of the source that are not given here.

Tested on: mouse adapted strain of the A2/HK/l/68 virus
Conditions: 10^-4 mole/kg doses twice daily for 3 days; for Weight Change Day 0 -Day 3: dosing period, indication of toxicity

Row | Compound | Day 8 Means Body Wt. (Expt. 1, subcutaneous) [gm] | Day 8 Means Lung WT./ Body Wt. Ratio x 100 (Expt. 1, subcutaneous) | Day 8 Means Lung Wt. (Expt. 1, subcutaneous) [mg] | Weight Change Day 3 -Day 8 (Expt. 1, subcutaneous) | Weight Change Day 0 -Day 3 (Expt. 1, subcutaneous) | Day 8 Means Body Wt. (Expt. 2, subcutaneous) [gm] | Day 8 Means Lung WT./ Body Wt. Ratio x 100 (Expt. 2, subcutaneous) | Day 8 Means Lung Wt. (Expt. 2, subcutaneous) [mg] | Weight Change Day 3 -Day 8 (Expt. 2, subcutaneous) | Weight Change Day 0 -Day 3 (Expt. 2, subcutaneous) | Day 8 Means Body Wt. (Expt. 3, oral) [gm] | Day 8 Means Lung WT./ Body Wt. Ratio x 100 (Expt. 3, oral) | Day 8 Means Lung Wt. (Expt. 3, oral) [mg] | Weight Change Day 3 -Day 8 (Expt. 3, oral) | Weight Change Day 0 -Day 3 (Expt. 3, oral)
1 | NC(=O)c1ncn([C@@H]2O[C@H](CO)[C@@H](O)[C@H]2O)n1 [Compound 1, 1-β-D-ribofuranosyl-3-carbamoyl-1,2,4-triazole, reference compound] | 20.7 | 1.16 | 238 | +0.8 | +0.7* | 20.5 | 1.36 | 291 | +1.8 | +0.2* | 19.1 | 1.40** | 285 | -0.8 | +0.9*
2 | 1-[β-D-(5'-succinyl-2',3'-carbonyl)ribofuranosyl]-3-carbamoyl-1,2,4-triazole amantadine salt [Compound 6] | 22.4 | 1.25 | 273 | +0.9 | +2.4 | 21.2 | 1.30** | 266 | +0.4 | +2.1 | 22.5 | 1.25** | 275 | +0.7 | +2.6
